The results in this text go back to patent US8741897B2, “Glucocorticoid mimetics, methods of making them, pharmaceutical compositions and uses thereof” (Boehringer Ingelheim Pharmaceuticals Inc., priority 2003, dated 2014).

The assay relates to glucocorticoid receptor function. In words: one or more of the above assays (GR binding and glucocorticoid receptor cell assays: aromatase, IL-6, TAT, MMTV-Luc, IL-8, ICAM-Luc). The assay is classed as cell-based. To be noted: assay not specified per compound.
In the case of `Cc1ccc(F)cc1C(C)(C)CC(O)(Cc1cc2cc(OS(=O)(=O)C(F)(F)F)ncc2[nH]1)C(F)(F)F` (stereo not drawn) [Trifluoromethanesulfonic acid 2-[4-(5-fluoro-2-methylphenyl)-2-hydroxy-4-methyl-2-trifluoromethylpentyl]-1H-pyrrolo[2,3-c]pyridin-5-yl ester], the “activity as agonists of the glucocorticoid receptor function in one or more of the above assays” value (“activity as agonists” for short) is “potent agonists”.

Turning to `CC(C)(CC(O)(Cc1cc2cnccc2[nH]1)C(F)(F)F)c1cc(S(C)(=O)=O)cc2c1OCC2` (stereo not drawn) [1,1,1-Trifluoro4-(5-methanesulfonyl-2,3-dihydrobenzofuran-7-yl)-4-methyl-2-(1H-pyrrolo[3,2-c]pyridin-2-ylmethyl)pentan-2-ol], the “activity as agonists” value is given as “potent agonists”.

Regarding `COc1ccc(F)cc1C(C)(C)CC(O)(Cc1cc2nc(N3CCCC3)ncc2[nH]1)C(F)(F)F` (stereo not drawn) [1,1,1-Trifluoro-4-(5-fluoro-2-methoxyphenyl)-4-methyl-2-(2-pyrrolidin-1-yl-5H-pyrrolo[3,2-d]pyrimidin-6-ylmethyl)pentan-2-ol], the “activity as agonists” value is reported as “potent agonists”.

Take `CC(C)(CC(O)(Cc1cc2ccncc2[nH]1)C(F)(F)F)c1cc(Br)ccc1O` (stereo not drawn) [4-Bromo-2-[4,4,4-trifluoro-3-hydroxy-1,1-dimethyl-3-(1H-pyrrolo[2,3-c]pyridin-2-ylmethyl)butyl]phenol]: the “activity as agonists” value is on record as “potent agonists”.

Regarding `CC(C)(CC(O)(Cc1cc2cc(N3CCCCC3)ncc2[nH]1)C(F)(F)F)c1cccc(F)c1` (stereo not drawn) [1,1,1-Trifluoro-4-(3-fluorophenyl)-4-methyl-2-(5-piperidin-1-yl-1H-pyrrolo[2,3-c]pyridin-2-ylmethyl)pentan-2-ol], the “activity as agonists” value was “potent agonists”.

In the case of `COc1ccc(-c2cccnc2)cc1C(C)(C)CC(O)(Cc1cc2cnccc2[nH]1)C(F)(F)F` (stereo not drawn) [1,1,1-Trifluoro-4-(2-methoxy-5-pyridin-3-ylphenyl)-4-methyl-2-(1H-pyrrolo[3,2-c]pyridin-2-ylmethyl)pentan-2-ol], the “activity as agonists” value is recorded as “potent agonists”.

`COc1cc(F)ccc1C(C)(C)CC(O)(Cc1cc2cc(N(C)C)ncc2[nH]1)C(F)(F)F` (stereo not drawn) [2-(5-Dimethylamino-1H-pyrrolo[2,3-c]pyridin-2-ylmethyl)-1,1,1-trifluoro-4-(4-fluoro-2-methoxyphenyl)-4-methylpentan-2-ol]: the “activity as agonists” value is listed as “potent agonists”.

As to `CC(C)(CC(O)(Cc1cc2ccncc2[nH]1)C(F)(F)F)c1cc(-c2ccccc2)ccc1O` (stereo not drawn) [3-[4,4,4-Trifluoro-3-hydroxy-1,1-dimethyl-3-(1H-pyrrolo[2,3-c]pyridin-2-ylmethyl)butyl]biphenyl-4-ol], the “activity as agonists” value is on record as “potent agonists”.

As for `Cc1ccc(F)cc1C(C)(C)CC(O)(Cc1cc2cnccc2[nH]1)C(C)(C)C` (stereo not drawn) [5-(5-Fluoro-2-methylphenyl)-2,2,5-trimethyl-3-(1H-pyrrolo[3,2-c]pyridin-2-ylmethyl)hexan-3-ol], the “activity as agonists” value was “agonists”.

As for `Cc1ccc(F)cc1C(C)(C)CC(O)(Cc1cc2cc(-c3ccccc3)nnc2[nH]1)C(F)(F)F` (stereo not drawn), the “activity as agonists” value is given as “potent agonists”.

Take `CC(C)C(O)(Cc1cc2cc(-c3ccccc3)ncc2[nH]1)CC(C)(C)c1cc(Cl)cc2c1OCC2` (stereo not drawn) [5-(5-Chloro-2,3-dihydrobenzofuran-7-yl)-2,5-dimethyl-3-(5-phenyl-1H-pyrrolo[2,3-c]pyridin-2-ylmethyl)hexan-3-ol]: the “activity as agonists” value was “agonists”.

Turning to `CC(C)(CC(O)(Cc1cc2cc(N3CCOCC3)ncc2[nH]1)C(F)(F)F)c1cccc(F)c1` (stereo not drawn) [1,1,1-Trifluoro-4-(3-fluorophenyl)-4-methyl-2-(5-morpholin-4-yl-1H-pyrrolo[2,3-c]pyridin-2-ylmethyl)pentan-2-ol], the “activity as agonists” value is “potent agonists”.

In the case of `COc1ccc(C)cc1C(C)(C)CC(O)(Cc1cc2nc(N3CCCC3)ncc2[nH]1)C(F)(F)F` (stereo not drawn), the “activity as agonists” value is given as “potent agonists”.

For the compound `CC(C)(CC(O)(Cc1cc2cc(-c3cccnc3)ccc2[nH]1)C(F)(F)F)c1cc(F)cc2c1OCC2` (stereo not drawn) [1,1,1-Trifluoro-4-(5-fluoro-2,3-dihydrobenzofuran-7-yl)-4-methyl-2-(5-pyridin-3-yl-1H-indol-2-ylmethyl)pentan-2-ol], the “activity as agonists” value is on record as “potent agonists”.

Regarding `CC(C)(CC(O)(Cc1cc2nc(C(N)=O)ccc2[nH]1)C(F)(F)F)c1cc(Cl)cc2c1OCC2` (stereo not drawn) [2-[4-(5-Chloro-2,3-dihydrobenzofuran-7-yl)-2-hydroxy-4-methyl-2-trifluoromethylpentyl]-1H-pyrrolo[3,2-b]pyridine-5-carboxylic acid amide], the “activity as agonists” value is “potent agonists”.

With `CN(C)c1cc2cc(CC(O)(CC(C)(C)c3ccc(F)cc3O)C(F)(F)F)[nH]c2cn1` (stereo not drawn) [2-[3-(5-Dimethylamino-1H-pyrrolo[2,3-c]pyridin-2-ylmethyl)-4,4,4-trifluoro-3-hydroxy-1,1-dimethylbutyl]-5-fluorophenol], the “activity as agonists” value is listed as “potent agonists”.

On to `COc1ccc(-c2ccccc2C#N)cc1C(C)(C)CC(O)(Cc1cc2cc(N3CCCCC3)ncc2[nH]1)C(F)(F)F` (stereo not drawn) [4′-Methoxy-3′-[4,4,4-trifluoro-3-hydroxy-1,1-dimethyl-3-(5-piperidin-1-yl-1H-pyrrolo[2,3-c]pyridin-2-ylmethyl)butyl]biphenyl-2-carbonitrile], for which the “activity as agonists” value was “potent agonists”.

Consider `CC(C)(CC(O)(Cc1cc2nc(CN3CCOCC3)ccc2[nH]1)C(F)(F)F)c1cc(Cl)ccc1O` (stereo not drawn) [4-Chloro-2-[4,4,4-trifluoro-3-hydroxy-1,1-dimethyl-3-(5-morpholin-4-ylmethyl-1H-pyrrolo[3,2-b]pyridin-2-ylmethyl)butyl]phenol], for which the “activity as agonists” value is “potent agonists”.

Regarding `CC(C)(CC(O)(Cn1ccc2ncccc21)C(F)F)c1cc(Cl)cc2c1OCC2` (stereo not drawn) [4-(5-Chloro-2,3-dihydrobenzofuran-7-yl)-1,1-difluoro-4-methyl-2-pyrrolo[3,2-b]pyridin-1-ylmethylpentan-2-ol], the “activity as agonists” value is given as “agonists”.

`COc1ccc(-c2cncnc2)cc1C(C)(C)CC(O)(Cc1cc2cc(N(C)C)ncc2[nH]1)C(F)(F)F` (stereo not drawn) [2-(5-Dimethylamino-1H-pyrrolo[2,3-c]pyridin-2-ylmethyl)-1,1,1-trifluoro-4-(2-methoxy-5-pyrimidin-5-ylphenyl)-4-methylpentan-2-ol]: the “activity as agonists” value is recorded as “potent agonists”.

For `CC(C)Oc1cc2cc(CC(O)(CC(C)(C)c3cc(-c4ccccc4)cc4c3OCC4)C(F)(F)F)[nH]c2cn1` (stereo not drawn) [1,1,1-Trifluoro-2-(5-isopropoxy-1H-pyrrolo[2,3-c]pyridin-2-ylmethyl)-4-methyl-4-(5-phenyl-2,3-dihydrobenzofuran-7-yl)pentan-2-ol], the “activity as agonists” value is given as “potent agonists”.

As to `CC(C)(CC(O)(Cc1[nH]c2ccccc2c1Br)C(F)(F)F)c1cccc(F)c1` (stereo not drawn) [2-(3-Bromo-1H-indol-2-ylmethyl)-1,1,1-trifluoro-4-(3-fluorophenyl)-4-methylpentan-2-ol], the “activity as agonists” value is on record as “potent agonists”.

With `CC(C)(CC(O)(Cc1cc2cc(N3CCOCC3)ncc2[nH]1)C(F)(F)F)c1ccc(F)cc1` (stereo not drawn) [1,1,1-Trifluoro-4-(4-fluorophenyl)-4-methyl-2-(5-morpholin-4-yl-1H-pyrrolo[2,3-c]pyridin-2-ylmethyl)pentan-2-ol], the “activity as agonists” value was “potent agonists”.

As for `CCC(=O)c1ccc2[nH]c(CC(O)(CC(C)(C)c3cc(Cl)cc4c3OCC4)C(F)(F)F)cc2n1` (stereo not drawn) [1-{2-[4-(5-Chloro-2,3-dihydrobenzofuran-7-yl)-2-hydroxy-4-methyl-2-trifluoromethylpentyl]-1H-pyrrolo[3,2-b]pyridin-5-yl}propan-1-one], the “activity as agonists” value is “potent agonists”.

As for `CC(C)(CC(O)(Cc1cc2cnccc2[nH]1)C(F)(F)F)c1cccc(-c2cncnc2)c1` (stereo not drawn) [1,1,1-Trifluoro-4-methyl-4-(3-pyrimidin-5-ylphenyl)-2-(1H-pyrrolo[3,2-c]pyridin-2-ylmethyl)pentan-2-ol], the “activity as agonists” value is recorded as “potent agonists”.

In the case of `CCN(C)c1cc2cc(CC(O)(CC(C)(C)c3cc(F)ccc3OC)C(F)(F)F)[nH]c2cn1` (stereo not drawn) [2-[5-(Ethylmethylamino)-1H-pyrrolo[2,3-c]pyridin-2-ylmethyl]-1,1,1-trifluoro-4-(5-fluoro-2-methoxyphenyl)-4-methylpentan-2-ol], the “activity as agonists” value is listed as “potent agonists”.

`CC(C)(CC(O)(Cc1cc2cc(Cl)ncc2[nH]1)C(F)(F)F)c1cc(Br)ccc1O` (stereo not drawn) [4-Bromo-2-[3-(5-chloro-1H-pyrrolo[2,3-c]pyridin-2-ylmethyl)-4,4,4-trifluoro-3-hydroxy-1,1-dimethylbutyl]phenol]: the “activity as agonists” value is on record as “potent agonists”.

For the compound `COc1ccc(F)cc1C(C)(C)CC(O)(Cc1cc2ccncc2[nH]1)C(F)F` (stereo not drawn) [1,1-Difluoro-4-(5-fluoro-2-methoxyphenyl)-4-methyl-2-(1H-pyrrolo[2,3-c]pyridin-2-ylmethyl)pentan-2-ol], the “activity as agonists” value is “agonists”.

`Cc1ccc(F)cc1C(C)(C)CC(O)(Cc1cc2cc(-c3ccccc3)ncc2[nH]1)C(C)C` (stereo not drawn) [5-(5-Fluoro-2-methylphenyl)-2,5-dimethyl-3-(5-phenyl-1H-pyrrolo[2,3-c]pyridin-2-ylmethyl)hexan-3-ol]: the “activity as agonists” value was “agonists”.

Turning to `CC(C)(CC(O)(Cc1cc2nc(CO)ccc2[nH]1)C(F)(F)F)c1cc(Cl)cc2c1OCC2` (stereo not drawn) [4-(5-Chloro-2,3-dihydrobenzofuran-7-yl)-1,1,1-trifluoro-2-(5-hydroxymethyl-1H-pyrrolo[3,2-b]pyridin-2-ylmethyl)-4-methylpentan-2-ol], the “activity as agonists” value is given as “potent agonists”.
